Reference: the supplement of paper PMC11061612

How the values were obtained:
[1] = test system: NCI-H2009 (Lung Adenocarcinoma); experiment: Bliss excess, mean over the matrix (fraction); higher = more synergy
Summary of the method: (§1)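 Bliss excess equals the observed combination effect minus the expected value EA + EB − EA·EB, where EA and EB are the effects of each agent alone. Combination Emax is the second-highest inhibition within the matrix. Inhibition was scaled from CellTiter-Glo 2.0 luminescence, with 0 set by vehicle wells and 1 by blank wells, after 72 hours of two-drug dosing of cells plated in 1536-well plates.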

SK-MEL-24 (Melanoma) = experiment: as above
Summary of the method: as §1

[2] = test system: TOV-21G (Ovarian Carcinoma); experiment: as above
Summary of the method: as §1

[3] = test system: C2BBe1 (Colorectal Carcinoma); experiment: as above
Summary of the method: as §1

[4] = test system: BC-1 (B-Cell Non-Hodgkin's Lymphoma); experiment: as above
Summary of the method: as §1

[5] = test system: JJN-3 (Plasma Cell Myeloma); experiment: as above
Summary of the method: as §1

[6] = test system: SCC90 (Head and Neck Carcinoma); experiment: as above
Summary of the method: as §1

[7] = test system: SW1463 (Colorectal Carcinoma); experiment: as above
Summary of the method: as §1

[8] = test system: HT-1197 (Bladder Carcinoma); experiment: as above
Summary of the method: as §1

[9] = test system: NCI-H1648 (Lung Adenocarcinoma); experiment: as above
Summary of the method: as §1

[10] = test system: SUP-HD1 (Hodgkin's Lymphoma); experiment: as above
Summary of the method: as §1

[11] = test system: HT-3 (Cervical Carcinoma); experiment: as above
Summary of the method: as §1

[12] = test system: TOV-21G (Ovarian Carcinoma); experiment: combination Emax (second highest fraction inhibited in the dose matrix, 72 h); higher = more inhibition; extreme values may be limits of the assay
Summary of the method: as §1

[13] = test system: NCI-H2023 (Non-Small Cell Lung Carcinoma); experiment: as above
Summary of the method: as §1

[14] = test system: CAL-85-1 (Breast Carcinoma); experiment: as above
Summary of the method: as §1

[15] = test system: MRK-nu-1 (Breast Carcinoma); experiment: as above
Summary of the method: as §1

[16] = test system: NCI-H1648 (Lung Adenocarcinoma); experiment: as above
Summary of the method: as §1

[17] = test system: KNS-62 (Squamous Cell Lung Carcinoma); experiment: as above
Summary of the method: as §1

[18] = test system: L-363 (Plasma Cell Myeloma); experiment: as above
Summary of the method: as §1

[19] = test system: NCI-H1944 (Lung Adenocarcinoma); experiment: as above
Summary of the method: as §1

Structure (SMILES) | Bliss excess [1] | Bliss excess (SK-MEL-24 (Melanoma)) | Bliss excess [2] | Bliss excess [3] | Bliss excess [4] | Bliss excess [5] | Bliss excess [6] | Bliss excess [7] | Bliss excess [8] | Bliss excess [9] | Bliss excess [10] | Bliss excess [11] | combination Emax [12] | combination Emax [13] | combination Emax [14] | combination Emax [15] | combination Emax [16] | combination Emax [17] | combination Emax [18] | combination Emax [19]
COc1cccc(OCCCN)c1-c1cc(Nc2cnc(C#N)cn2)n[nH]1 [Prexasertib] + C=CCn1c(=O)c2cnc(Nc3ccc(N4CCN(C)CC4)cc3)nc2n1-c1cccc(C(C)(C)O)n1 [AZD1775] (first compound max 1 µM, partner max 1 µM) | 0.0914 | 0.112 | -0.0089 | 0.0545 | 0.0168 | 0.085 | 0.0902 | 0.0656 | -0.0589 | 0.0286 | 0.0009 | 0.159 | 0.618 | 0.853 | 0.716 | 0.942 | 0.83 | 0.684 | 1 | 0.815
COc1cccc(OCCCN)c1-c1cc(Nc2cnc(C#N)cn2)n[nH]1 [Prexasertib] + CCc1c2c(nc3ccc(O)cc13)-c1cc3c(c(=O)n1C2)COC(=O)[C@]3(O)CC [SN-38] (first compound max 1 µM, 7x7, partner max 0.3 µM) | 0.132 | -0.0557 | -0.122 | -0.0103 | -0.0226 | 0.0314 | 0.127 | 0.0515 | -0.0376 | 0.0114 | -0.075 | 0.0221 | 0.852 | 0.783 | 0.85 | 0.84 | 0.962 | 0.874 | 1 | 0.857
COc1cccc(OCCCN)c1-c1cc(Nc2cnc(C#N)cn2)n[nH]1 [Prexasertib] + CN(C)CCCOc1ccc(-c2ccc3ncc4c(c3c2)n(C2CCOCC2)c(=O)n4C)cn1 [AZD0156] (first compound max 1 µM, 7x7, partner max 1 µM) | 0.019 | 0.0017 | 0.0588 | 0.0131 | -0.0057 | 0.0057 | -0.0634 | -0.0265 | -0.0183 | -0.0136 | -0.0442 | 0.0366 | 0.621 | 0.806 | 0.315 | 0.81 | 0.768 | 0.659 | 0.992 | 0.785
COc1cccc(OCCCN)c1-c1cc(Nc2cnc(C#N)cn2)n[nH]1 [Prexasertib] + C[C@@H]1COCCN1C2=NC(=NC(=C2)C3(CC3)[S@](=N)(=O)C)C4=C5C=CNC5=NC=C4 [AZD6738] (first compound max 1 µM, 7x7, partner max 10 µM) | 0.0846 | -0.0061 | -0.0582 | 0.0009 | -0.0022 | -0.0519 | -0.0457 | 0.0004 | 0.0065 | -0.0445 | -0.0809 | 0.0202 | 0.591 | 0.81 | 0.477 | 0.746 | 0.847 | 0.555 | 1 | 0.789
COc1cccc(OCCCN)c1-c1cc(Nc2cnc(C#N)cn2)n[nH]1 [Prexasertib] + Cc1cc2ncnn2cc1Nc1ncc2c(n1)n(C1CCOCC1)c(=O)n2C [AZD7648] (first compound max 1 µM, 7x7, partner max 10 µM) | -0.027 | 0.0054 | 0.0057 | 0.0318 | -0.0239 | -0.0097 | -0.036 | -0.0161 | -0.0206 | -0.0609 | -0.0443 | -0.0098 | 0.617 | 0.801 | 0.477 | 0.803 | 0.762 | 0.601 | 0.985 | 0.806
COc1cccc(OCCCN)c1-c1cc(Nc2cnc(C#N)cn2)n[nH]1 [Prexasertib] + O=C(c1cc(Cc2n[nH]c(=O)c3ccccc23)ccc1F)N1CCN(C(=O)C2CC2)CC1 [Olaparib] (first compound max 1 µM, 7x7, partner max 10 µM) | -0.0185 | -0.0381 | -0.0111 | -0.0704 | -0.0108 | 0.0165 | -0.095 | -0.0549 | -0.044 | 0.0051 | -0.091 | 0.0276 | 0.579 | 0.801 | 0.548 | 0.674 | 0.802 | 0.576 | 1 | 0.613
CCc1c2c(nc3ccc(O)cc13)-c1cc3c(c(=O)n1C2)COC(=O)[C@]3(O)CC [SN-38] + CN(C)CCCOc1ccc(-c2ccc3ncc4c(c3c2)n(C2CCOCC2)c(=O)n4C)cn1 [AZD0156] (first compound max 0.3 µM, 7x7, partner max 1 µM) | 0.126 | 0.0267 | -0.0349 | -0.0179 | 0.0158 | 0.0183 | 0.0059 | 0.0296 | -0.0537 | -0.0451 | -0.0579 | 0.0499 | 0.574 | 0.834 | 0.639 | 0.803 | 0.875 | 0.872 | 0.559 | 0.686
Cn1cnc2c(F)c(Nc3ccc(Br)cc3Cl)c(C(=O)NOCCO)cc21 [Selumetinib] + C=CCn1c(=O)c2cnc(Nc3ccc(N4CCN(C)CC4)cc3)nc2n1-c1cccc(C(C)(C)O)n1 [AZD1775] (first compound max 10 µM, partner max 1 µM) | 0.0308 | -0.0315 | -0.0891 | -0.0398 | 0.0569 | -0.0188 | -0.0036 | -0.0367 | 0.0032 | -0.0704 | -0.0188 | -0.0009 | 0.702 | 0.281 | 0.474 | 0.0295 | 0.621 | 0.434 | 0.924 | 0.706
Cn1cnc2c(F)c(Nc3ccc(Br)cc3Cl)c(C(=O)NOCCO)cc21 [Selumetinib] + CC(C)n1c(=O)n(C)c2cnc3cc(F)c(-c4ccc(OCCCN5CCCCC5)nc4)cc3c21 [AZD1390] (first compound max 10 µM, 7x7, partner max 0.3 µM) | -0.0254 | -0.014 | -0.0336 | -0.05 | -0.0023 | 0.0046 | 0.0124 | -0.0078 | -0.0565 | -0.0418 | -0.043 | -0.0392 | 0.259 | 0.161 | 0.44 | 0.35 | 0.512 | 0.439 | 0.017 | 0.285
Cn1cnc2c(F)c(Nc3ccc(Br)cc3Cl)c(C(=O)NOCCO)cc21 [Selumetinib] + CCN(CCO)CCCOc1ccc2c(Nc3cc(CC(=O)Nc4cccc(F)c4)[nH]n3)ncnc2c1 [AZD2811] (first compound max 10 µM, 7x7, partner max 1 µM) | -0.0059 | -0.0628 | 0.0139 | -0.0439 | 0.0349 | 0.0552 | 0.0116 | 0.0162 | -0.0073 | 0.0048 | 0.0251 | -0.0288 | 0.48 | 0.275 | 0.483 | 0.548 | 0.593 | 0.495 | 0.116 | 0.381
Cn1cnc2c(F)c(Nc3ccc(Br)cc3Cl)c(C(=O)NOCCO)cc21 [Selumetinib] + C[C@@H]1COCCN1C2=NC(=NC(=C2)C3(CC3)[S@](=N)(=O)C)C4=C5C=CNC5=NC=C4 [AZD6738] (first compound max 10 µM, 7x7, partner max 10 µM) | -0.0313 | 0.0125 | 0.0142 | -0.052 | -0.0612 | 0.0533 | 0.0126 | -0.0121 | 0.0196 | -0.0259 | -0.0549 | 0.063 | 0.809 | 0.477 | 0.559 | 0.413 | 0.752 | 0.524 | 0.801 | 0.879
CC(=O)Nc1cccc(-n2c(=O)n(C3CC3)c(=O)c3c(Nc4ccc(I)cc4F)n(C)c(=O)c(C)c32)c1 [Trametinib] + Cc1nc(-c2cn3c(n2)-c2ccc(-c4cnn(C(C)(C)C(N)=O)c4)cc2OCC3)n(C(C)C)n1 [Taselisib] (first compound max 1 µM, 7x7, partner max 10 µM) | 0.151 | 0.012 | -0.051 | 0.0464 | 0.149 | 0.204 | 0.0348 | 0.04 | 0.105 | 0.0655 | 0.0392 | 0.12 | 0.817 | 0.769 | 0.975 | 0.814 | 1 | 0.827 | 0.635 | 0.985
CC1(C)CCC(CN2CCN(c3ccc(C(=O)NS(=O)(=O)c4ccc(NCC5CCOCC5)c([N+](=O)[O-])c4)c(Oc4cnc5[nH]ccc5c4)c3)CC2)=C(c2ccc(Cl)cc2)C1 [Venetoclax] + C1CN(CCC1(C(=O)N[C@@H](CCO)C2=CC=C(C=C2)Cl)N)C3=NC=NC4=C3C=CN4 [Capivasertib] (first compound max 1 µM, 7x7, partner max 3 µM) | -0.0299 | -0.0695 | -0.0533 | -0.0585 | -0.011 | -0.0035 | 0.0282 | -0.0424 | -0.0444 | -0.0405 | -0.0636 | -0.0231 | 0.646 | 0.424 | 0.161 | 0.288 | 0.45 | 0.364 | 0.867 | 0.249
CC1(C)CCC(CN2CCN(c3ccc(C(=O)NS(=O)(=O)c4ccc(NCC5CCOCC5)c([N+](=O)[O-])c4)c(Oc4cnc5[nH]ccc5c4)c3)CC2)=C(c2ccc(Cl)cc2)C1 [Venetoclax] + C=CCn1c(=O)c2cnc(Nc3ccc(N4CCN(C)CC4)cc3)nc2n1-c1cccc(C(C)(C)O)n1 [AZD1775] (first compound max 1 µM, partner max 1 µM) | -0.0212 | -0.0473 | -0.0261 | 0.0124 | 0.0683 | -0.0187 | -0.0466 | -0.0942 | -0.001 | -0.0451 | -0.0256 | -0.0049 | 0.703 | 0.713 | 0.473 | 0.294 | 0.595 | 0.544 | 1 | 0.728
